Measured values: patent US20040229246A1, “Diagnostic markers for therapeutic treatment” (Can-Fite Biopharam Ltd., priority 2002, published 2004)

How the values were obtained:
Format in all cases: cell-based
A3AR [1] = biological target: T1, A3AR (Mus musculus, UniProt Q61618); assay: Immunostaining and confocal microscopy of A3AR localization in B16-F10 melanoma cells
T1 construct: endogenous in cells; host or cells: B16-F10 melanoma cells
T1 sequence (Q61618 1-319): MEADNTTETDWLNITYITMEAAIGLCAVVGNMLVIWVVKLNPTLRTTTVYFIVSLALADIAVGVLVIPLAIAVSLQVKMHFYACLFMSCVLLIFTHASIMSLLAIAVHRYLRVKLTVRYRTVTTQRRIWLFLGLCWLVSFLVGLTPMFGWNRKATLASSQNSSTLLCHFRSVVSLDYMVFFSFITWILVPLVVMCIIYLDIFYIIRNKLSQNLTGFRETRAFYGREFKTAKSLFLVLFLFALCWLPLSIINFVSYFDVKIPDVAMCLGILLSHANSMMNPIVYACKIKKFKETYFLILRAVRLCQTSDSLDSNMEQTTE
Description: B16-F10 melanoma cells were grown for 24 hours on cover slips coated with Ploy-L-Lysine (500 μg/ml). Cells were fixed in 4% formaldehyde in phosphate-buffered saline (PBS) for 1 hour at room temperature. The fixed cells were rinsed three times for one min with PBS. To block nonspecific interaction of the antibodies, cells were incubated for 30 minutes in 4% normal goat serum (NGS) in PBS (1% bovine serum albumin (BSA), 0.1% Triton X-100). For the single labeling experiments, cells were then incubated with the primary antibodies against A3AR at a dilution of 1:1000 in PBS (1% BSA, 1% NGS, 0.1% Triton X-100) for 24 hours at 4° C. For the double labeling experiments, antibodies against the A2B adenosine receptor (A2BR) were added at a dilution of 1:1000 to the reaction mixture. After being washed three times for 3 minutes with PBS, cells were incubated with Cy3-conjugated anti-goat IgG for the single labeling experiment, and with both, Fluorescein-conjugated anti-rabbit IgG and Cy3 for the double labeling. Both antibodies were diluted to 1:250 in PBS and incubated in the dark for 2 hours. Cells were rinsed with PBS three more times and mounted with AM 100 (Chemicon, Ca). Stained cells were visualized by Confocal Microscope (Zeiss, Axiovert 100 M, excitation at 553 and emission at 560-615 nm for Cy3, and 492 and 520 nm, respectively, for Fluorescein).
To study receptor localization, confocal laser microscopy was utilized.
To further explore the time course kinetic of A3AR internalization, B16-F10 melanoma cells were exposed for different time periods to IB-MECA and confocal microscopy analysis was carried out. FIG. 2 depicts the gradual internalization rate that occurred within a few minutes, resulting in the disappearance of the fluorescence after 6 minutes. […] This was followed by internalization/externalization after longer incubation time periods (30 and 60 minutes). To confirm the observation that the fluorescence level is decreased as a result of internalization, optical sectioning of the cells was performed (data not shown). […] To show the specificity of A3AR localization, it was compared to that of the A2B adenosine receptor. […] Upon exposure of the cells to IB-MECA, the A2BR was masked by A3AR in the cytoplasm.

A3AR [2] = assay: Northern blot analysis of A3AR mRNA in B16-F10 melanoma cells; details: B16-F10 melanoma cells treated with IB-MECA
Description: Total RNA was isolated from B16-F10 melanoma cells treated with IB-MECA, utilizing Tri-reagent (Sigma, Saint Louis). The samples were then subjected twice to phenol:chloroform extraction and washed with chloroform. RNA was precipitated with sodium acetate/ethanol following washing with ethanol, then denatured, separated (25 μg per lane) in 1.1% formaldehyde agarose gels and transferred to Hybond-N membrane. The 390 bp EcoRI fragment from A3AR cDNA clone of mouse (TAA3I.S), kindly supplied by Dr Kathia Ravid, was prepared by random-primed synthesis. Probes were used in RNA blot analysis at a hybridization temperature of 42° C. in the presence of 50% formamide.

[3] = tested on: A3AR, NF-κB, c-myc, cyclin D1; assay: Immunoblot analysis of proteins extracted from prostate carcinoma (PC-3) cells
Description: (§1) To detect the level of expression of the A3AR proteins Western blot analysis was performed. Cells were incubated in the presence and absence of IB-MECA (10 nM), MRS1523 (10 nM), Forskolin (50 nM), 8 Br cAMP (100 μM), Cycloheximide 20 μg/ml or MG 132 (20 nM) for different time periods at 37° C. Cells were then rinsed with ice-cold PBS and transferred to ice-cold lysis buffer (TNN buffer, 50 mM Tris buffer pH=7.5, 150 mM NaCl, NP 40). In the experiment examining the effect of trypsin on A3AR expression, cells were incubated with 0.5 ml of 0.25% trypsin for 5 minutes. The trypsinized cells were washed again with ice-cold PBS, harvested by centrifugation and subjected to lysis in TNN buffer. Cell debris was removed by centrifugation for 10 minutes, at 7500 xg. The supernatant was utilized for Western Blot analysis. Protein concentrations were determined using the Bio-Rad protein assay dye reagent. Equal amounts of the sample (50 μg) were separated by SDS-PAGE, using 12% polyacrylamide gels. The resolved proteins were then electroblotted onto nitrocellulose membranes (Schleicher & Schuell, Keene, NH, USA). Membranes were blocked with 1% bovine serum albumin and incubated with the desired primary antibody (dilution 1:1000) for 24 hours at 4° C. Blots were then washed and incubated with a secondary antibody for 1 hour at room temperature. Bands were recorded using BCIP/NBT color development kit (Promega, Madison, W1, USA). Data presented in the different figures are representative of at least three different experiments.
The effect of IB-MECA on key proteins downstream to A3AR activation in prostate carcinoma cells was also examined in a manner similar to that performed with melanoma cells (see above).

PKA and GSK-3β = assay: Receptor functionality: Western blot of PKA and GSK-3β in B16-F10 melanoma cells
Description: as §1
To test receptor functionality, the protein expression level of PKA and GSK-3β, which are modulated downstream to A3AR activation, was examined. Functional receptor sensitization by IB-MECA was observed after 15 and 60 minutes and was manifested by decreased PKA and increased GSK-3β levels. […] Indeed, the modulatory effect of IB-MECA on PKA and GSK-3β was reversed in the presence of the above agents (FIG. 8a, 8b and 8c).

**Q.** With `CNC(=O)[C@H]1O[C@@H](n2cnc3c(NCc4cccc(I)c4)ncnc32)[C@H](O)[C@@H]1O` [IB-MECA, 1-deoxy-1-[6[[(3-iodophenyl)methyl]amino]-9H-purine-9-yl]-N-methyl-β-D-ribofura-nuronaminde] as the compound, how does the “time to disappearance of the A3AR fluorescence (internalization)” value (A3AR [1]; B16-F10 melanoma cells exposed to IB-MECA) read?
**A.** The value was 6 min.

**Q.** What about the “A3AR fluorescence level on the cell surface” value (A3AR [1]; B16-F10 melanoma cells, IB-MECA treated, after 5 minutes) of the same compound?
**A.** The value was “marked decrease”.

**Q.** And the “A3AR localization, optical sectioning” value (A3AR [1]; B16-F10 melanoma cells, after 15 and 60 minutes' exposure)?
**A.** The value was “seen both in the cytoplasm and on the cell surface”.

**Q.** And the “A3AR localization, optical sectioning” value (A3AR [1]; B16-F10 melanoma cells, exposure for 5 minutes)?
**A.** The value was “presented in the cytoplasm”.

**Q.** And the A3AR localization (A3AR [1]; B16-F10 melanoma cells, prolonged exposure (15 minutes))?
**A.** The A3AR localization was “receptor externalization to the cell surface”.

**Q.** And the “A3AR mRNA expression level” value (A3AR [2])?
**A.** Its value is “increase”.

**Q.** What about the A3AR level [3] of the same compound?
**A.** Its A3AR level is “down-regulation”.

**Q.** What about the NF-κB level [3] of the same compound?
**A.** Its NF-κB level is “down-regulation”.

**Q.** And the c-myc level [3]?
**A.** Its c-myc level is “down-regulation”.

**Q.** What about the “cyclin D1 level” value [3] of the same compound?
**A.** The value was “down-regulation”.

**Q.** What about the GSK-3β level (PKA and GSK-3β; after 15 and 60 minutes) of the same compound?
**A.** Its GSK-3β level is “increased”.

**Q.** What about the PKA level (PKA and GSK-3β; after 15 and 60 minutes) of the same compound?
**A.** Its PKA level is “decreased”.

**Q.** And the GSK-3β level (PKA and GSK-3β; at 30 minutes)?
**A.** Its GSK-3β level is “only slightly increased”.

**Q.** And the PKA level (PKA and GSK-3β; at 30 minutes)?
**A.** The PKA level was “stabilized”.
